Results as given in BindingDB's records for doi:10.1016/j.ejmech.2017.08.046 (University of Torino, 2017).
pIC50: −log10 of the molar value.

Molecular target: Prostaglandin G/H synthase 2 (Homo sapiens) (UniProt P35354)
Experiment: Inhibition of human COX2 assessed as reduction in PGF2alpha production by ELISA

Chain of Prostaglandin G/H synthase 2 (Homo sapiens) (P35354 whole entry, looked up): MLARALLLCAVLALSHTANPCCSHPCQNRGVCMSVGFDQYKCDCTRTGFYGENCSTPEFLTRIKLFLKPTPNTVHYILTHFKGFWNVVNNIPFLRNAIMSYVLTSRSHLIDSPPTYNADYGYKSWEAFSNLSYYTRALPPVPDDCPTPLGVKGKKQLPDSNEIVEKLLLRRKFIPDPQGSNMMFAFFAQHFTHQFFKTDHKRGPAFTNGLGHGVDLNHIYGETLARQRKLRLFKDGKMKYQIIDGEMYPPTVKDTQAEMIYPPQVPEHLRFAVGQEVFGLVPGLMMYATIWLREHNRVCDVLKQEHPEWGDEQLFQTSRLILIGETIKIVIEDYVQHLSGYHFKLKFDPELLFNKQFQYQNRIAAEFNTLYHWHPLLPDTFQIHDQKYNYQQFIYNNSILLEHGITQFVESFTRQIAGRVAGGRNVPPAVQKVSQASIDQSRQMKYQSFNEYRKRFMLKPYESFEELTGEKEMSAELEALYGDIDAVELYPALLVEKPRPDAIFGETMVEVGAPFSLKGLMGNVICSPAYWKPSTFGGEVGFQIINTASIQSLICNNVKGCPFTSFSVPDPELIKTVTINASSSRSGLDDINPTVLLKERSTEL

| pIC50 | Structure (SMILES) |
| --- | --- |
| < 4.00 | O=C(Nc1cccc(C(F)(F)F)c1)c1c(O)nnn1Cc1ccccc1 |
| < 4.00 | O=C(Nc1cccc(C(F)(F)F)c1)c1c(O)nnn1CC1CC1 |
| < 4.00 | COc1ccc(Cn2nnc(O)c2C(=O)Nc2cccc(C(F)(F)F)c2)cc1 |
